# Reference: patent publication US20220387358A1, “CERAMIDE ANALOG SACLAC MODULATES SPHINGOLIPID LEVELS AND MCL-1 SPLICING TO INDUCE APOPTOSIS IN ACUTE MYELOID LEUKEMIA” (University of Virginia Patent Foundation, priority 2019, published 2022)
# Assays:
# OCI-AML2 cells = test: Western blot of SF3B1, Mcl-1S and Mcl-1L protein expression; type: cell-based, human
# Experimental: Cells were plated at 2.5×10^5 cells per ml in 6-well plates and treated with drug, vehicle or siRNA at the indicated doses and time points. Cells were harvested, washed with PBS and lysed prior to preparation of protein extracts for western blotting.
# More particularly, cells were lysed with RIPA buffer (#R0278, Sigma, St. Louis, Mo., United States of America) containing phosphatase inhibitor cocktails 2 and 3 (Sigma #P5726, #P0044) and protease inhibitor cocktail (#P8340, Sigma, St. Louis, Mo., United States of America). Protein was quantified using a bicinchoninic acid (BCA) protein assay kit (#23225, Pierce, Waltham, Mass., United States of America). Samples were resolved on a Bolt 4-12% SDS-PAGE gel (#NW00082, ThermoFisher Scientific, Waltham, Mass., United States of America) and transferred to PVDF membrane (#170-4274, Bio-Rad Laboratories, Hercules, Calif., United States of America). Antibodies were obtained from Cell Signaling Technology (Danvers, Mass., United States of America) unless indicated otherwise. Primary antibodies used were: Mcl-1 (#5453, RRID #AB 10694494), SF3B1 (#14434, RRID #AB 2798479), β-actin (#3700, RRID #AB_2242334) and AC (BD Biosciences #612302 (San Jose, California, United States of America), RRID #AB_399617). Secondary antibodies used were HRP-linked goat anti-mouse (#7076, RRID #AB_330924) or goat anti-rabbit IgG (#7074, RRID # AB_2099233). Clarity Max Western ECL Substrate (#1705062, Bio-Rad Laboratories, Hercules, Calif., United States of America) was added to visualize relative protein expression by chemiluminescence using the Bio-Rad ChemiDoc MP imaging system (Bio-Rad Laboratories, Hercules, Calif., United States of America). Quantification was done using Bio-Rad ImageLab 6.0.1 software (Bio-Rad Laboratories, Hercules, Calif., United States of America). For quantification, bands were normalized to β-actin as a loading control.
# acid ceramidase (AC) = biological target: T1, acid ceramidase (AC) (Homo sapiens, UniProt Q13510); test: Acid ceramidase activity assay (RBM14C12 fluorogenic substrate) in human AML cell lines; type: cell-based; settings: LCL204 5 or 10 μM vs SACLAC 1.25 or 2.5 μM; HL-60/VCR, THP-1, OCI-AML2
# T1 construct: endogenous in cells; host or cells: HL-60/VCR, THP-1 and OCI-AML2 human AML cell lines
# T1 sequence (Q13510 143-395 limits assumed): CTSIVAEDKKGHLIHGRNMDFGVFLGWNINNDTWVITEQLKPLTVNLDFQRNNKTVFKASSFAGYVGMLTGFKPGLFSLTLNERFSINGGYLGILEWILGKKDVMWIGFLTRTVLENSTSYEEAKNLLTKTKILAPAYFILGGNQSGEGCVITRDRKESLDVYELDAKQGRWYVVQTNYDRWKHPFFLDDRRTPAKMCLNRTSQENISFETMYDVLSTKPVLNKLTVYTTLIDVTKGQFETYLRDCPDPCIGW
# T1 sequence (Q13510 22-142 limits assumed): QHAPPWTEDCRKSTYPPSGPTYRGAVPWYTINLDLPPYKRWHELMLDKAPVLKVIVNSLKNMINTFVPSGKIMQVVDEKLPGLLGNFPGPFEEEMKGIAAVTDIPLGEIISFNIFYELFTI
# Experimental: Cells were seeded at 2×10^4 cells per well in 50 μl Acid ceramidase activity was measured at 24 hours using the RBM14C12 fluorogenic substrate as previously described (22,34).
# hAML cell lines = test: Venetoclax sensitivity of hAML cell lines; type: cell-based, human; settings: sensitive (MV4-11, MOLM-13, OCL-AML2) vs resistant (MM-6, THP-1, HL-60/VCR, OCI-AML3)
# Experimental: Venetoclax sensitive cell lines can be co-treated with SACLAC (0.3 to 2.5 μM) and venetoclax (1 to 32 nM). […] Cell viability can be determined by MTS assay 24 hours after treatment. CompuSyn software (ComboSyn Inc., Paramus, N.J., United States of America) can be used to determine synergy. A combination index (CI) of >1, 1, and <1 indicates antagonism, additive effect, and synergism, respectively, with increasing synergism indicated by values approaching zero.
smiles,measurement,setting,value
"CCCCCCCCCCCCC/C=C/[C@@H](O)[C@H](CO)NC(=O)CCCCCCCCCCCCCCC [C16 ceramide, reference compound]",SF3B1 protein,"OCI-AML2 cells; C16 ceramide 20 μM, 48 hours",reduction
same,ratio of Mcl-1S to Mcl-1L,"OCI-AML2 cells; C16 ceramide 20 μM, 48 hours",increase
"CO[C@]1(C)C[C@@]2(CO2)[C@H](O)[C@@H](/C=C/C(C)=C/C[C@@H]2O[C@H](C)[C@H](NC(=O)/C=C\[C@H](C)OC(C)=O)C[C@@H]2C)O1 [Spliceostatin A, reference compound]",Mcl-1S protein,"OCI-AML2 cells; 5, 10 or 20 nM, 6 hours",dose-dependent increase
"CCCCCCCCCCCCCCN[C@H](CO)[C@H](O)c1ccc([N+](=O)[O-])cc1 [LCL204, (1R, 2R)-2-N-(tetradecylamino)-1-(4′-nitrophenyl)-1,3-propandiol, reference compound]",dose required to achieve similar AC inhibition as SACLAC,acid ceramidase (AC),four-fold higher dose
CC1(C)CCC(CN2CCN(c3ccc(C(=O)NS(=O)(=O)c4ccc(NCC5CCOCC5)c([N+](=O)[O-])c4)c(Oc4cnc5[nH]ccc5c4)c3)CC2)=C(c2ccc(Cl)cc2)C1 [Venetoclax],difference in sensitivity between venetoclax sensitive and resistant cell lines,hAML cell lines,> 100 fold
"CN(C)CC[C@H](CSc1ccccc1)Nc1ccc(S(=O)(=O)NC(=O)c2ccc(N3CCN(Cc4ccccc4-c4ccc(Cl)cc4)CC3)cc2)cc1[N+](=O)[O-] [ABT-737, 4-[4-[[2-(4-chlorophenyl)phenyl]methyl]piperazin-l-yl]-N-[4-[[(2R)-4-(dimethylamino)-1-phenylsulfanylbutan-2-yl]amino]-3-nitrophenyl]sulfonylbenzamide, reference compound]",Mcl-1 cleavage fragment (caspase-mediated),"OCI-AML2 cells; ABT-737 75 nM, 24 hours, abrogated by Z-VAD-FMK 50 μM",smaller fragment of approximately 22 kDa
